Data on ten compounds can be found in the SangsterLogP compilation.

The term logD denotes the decadic logarithm of the distribution of all forms, ionised or not, between an organic phase and buffer at a given pH.

The first data set is described as follows: method code SF, from DOI: 10.1007/bf01990207, PMID: 819289. The settings on record: pH 7.4.
As to `CCCNC(=O)CNC(=O)C=[N+]=[N-]`, the logD is -0.24.

`[N-]=[N+]=CC(=O)NCC(=O)NCCO` had a logD of -1.35.

`[N-]=[N+]=CC(=O)NCC(N)=O` returned a logD of -1.26.

On to `CC(C)CNC(=O)CNC(=O)C=[N+]=[N-]`, for which the logD was found to be 0.37.

Turning to `CNC(=O)CNC(=O)C=[N+]=[N-]`, the logD is -0.87.

For `CCNC(=O)CNC(=O)C=[N+]=[N-]`, the logD is -0.62.

`[N-]=[N+]=CC(=O)NCC(=O)NN` had a logD of -0.76.

`CCOC(=O)CNC(=O)C=[N+]=[N-]` returned a logD of -0.08.

Consider `CC(C)NC(=O)CNC(=O)C=[N+]=[N-]`, for which the logD was -0.41.

A further data set can be described thus: method code SF-AS, from DOI: 10.1007/bf01990207, PMID: 819289. As to conditions: pH 7.4.
`CCCCCCNC(=O)CNC(=O)C=[N+]=[N-]` came in with a logD of 1.51.
